According to US7485601B2, “Herbicide composition” (Sumitomo Chemical Company, Limited, priority 2001, dated 2009):

Tests used:
[1] = system: yellow nutsedge (Cyperus esculentus); assay: Herbicide effect by foliar spray on pot-grown yellow nutsedge in greenhouse (Test Example 1); assay type: in vivo; settings: evaluated 25 days after treatment, level 0-10
Protocol: (§1) Evaluation of phytotoxicity against a crop was shown by “no” when almost no phytotoxicity was observed, “low” when a low level phytotoxicity was observed, “medium” when a medium level phytotoxicity was observed and “high” when a high level phytotoxicity was observed.
(§2) A plastic pot of 11 cm in diameter and 8 cm in depth was filled with field soil. A tuber of yellow nutsedge (Cyperus esculentus) was planted and grown in a greenhouse for 21 days.
(§3) An emulsion of Compound A-1 was prepared by sufficiently mixing 5 parts of Compound A-1, 6 parts of Sorpol 3005×(surfactant, produced by Toho Chemical) and 89 parts of xylene.
(§4) Each of single use of an emulsion of Compound A-1, single use of an formulation of Chlorimuron-ethyl (commercial name: Classic, produced by Du Pont, containing 25% of Chlorimuron-ethyl), and a mixed composition of an emulsion of Compound A-1 and an formulation of Chlorimuron-ethyl, were diluted with water containing 1% Agri-dex (produced by Helena). Respective dilutions were uniformly sprayed from upper side onto foliages of yellow nutsedge grown as described above with a small sprayer such that the amounts of the active ingredients were the amounts shown in Table 4. […]
(§5) After the treatment, they were raised in a greenhouse for 25 days and the effect against weeds was evaluated. In addition, after 14 days of the treatment, the phytotoxicity to soybean was evaluated.

[2] = system: soybean; assay: Phytotoxicity to soybean sown immediately after treatment (Test Example 1); assay type: in vivo; settings: evaluated after 14 days
Protocol: as §1, §2, §3, §4, §5

`CCOC(=O)c1ccccc1S(=O)(=O)NC(=O)Nc1nc(Cl)cc(OC)n1` [Chlorimuron-ethyl, ethyl 2-(4-chloro-6-methoxypyrimidin-2-ylcarbamoylsulfamoyl)benzoate] was tested, and the “Herbicide Effect yellow nutsedge” value ([1]; 5 g/ha active ingredient) was 1, the “Herbicide Effect yellow nutsedge” value ([1]; 20 g/ha active ingredient) was 2 and the Phytotoxicity soybean ([2]; 5 g/ha active ingredient) was “no”. For the same molecule, the Phytotoxicity soybean ([2]; 20 g/ha active ingredient) was “no”.
